Experimental data from US20140371258A1 (priority 2010, published 2014).
“Also recorded” adds a separate entry of the source. Like-named read-outs stand apart in the source and are kept apart here.

What was measured:
[1] = humans, cited from earlier work
[2] = mouse, in vivo, iv
Experimental: (§1) The experiment consisted of 3 treatment groups of 36 mice per group plus an untreated group of 3 mice for a total of 39 mice on the day of treatment. […] The above ‘topotecan-equivalent’ concentrations were calculated based on the topotecan content for each compound. […] At intervals (0.5, 1, 2, 4, 8, 12, 24, 72, 120, 168, 216 hr) following drug administration, 3 animals per treatment group were sacrificed, blood collected via cardiac puncture, and tumor tissue was excised. Tumor tissue was flash frozen and stored at −80° C. until analysis. Blood was processed to obtain plasma and stabilizers added as described for PK studies in beagle dogs. Samples were frozen and stored at −80° C. until analysis.
(§2) Plasma and tumor-tissue were analyzed by LC/MS-MS for topotecan. Data was reported as ng/mL for plasma samples and ng/mg for tumor samples.

Single-dose MTD study = experiment: Single-dose MTD study; design: species or system mice; conditions: mouse, in vivo, intravenous, topotecan-equivalent
in vivo = conditions: mouse, iv
Experimental: as §1, §2

[3] = Maximum tolerated dose (tolerance) study, Q4D×3 iv; type: in vivo, female athymic NCr-nu/nu mice
HT29 human colon tumor = experiment: HT29 colorectal cancer xenograft efficacy study; conditions: for Non-Specific Deaths / Regressions (100%) / Tumor Free on Day 99: 10 animals per group; for Growth Delay (T-C): based on median days to 1000 mg
From the text: Six-weeks-old female athymic NCr-nu/nu mice were purchased from Charles River Laboratories, Inc. (Wilmington, Mass.) and acclimated in the laboratories for nine days prior to experimentation. The mice were housed in microisolator cages, up to five animals per cage. Each animal in the cage was identified by an ear punch. All mice were on a 12-hour light/dark cycle and received filtered municipal water and sterilizable rodent diet (Harlan-Teklad TD8656) ad libitum. Cages were changed twice weekly. The animals were observed daily and clinical signs were noted.
Thirty-to-forty mg fragments of HT29 human colon tumor, propagated in an in vivo passage, were implanted sc on the right flank area of mice using a12-gauge trocar needle. The day of tumor implantation was designated as Day 0. […] A sufficient number of mice were implanted so that animals with tumors in a weight range as narrow as possible were selected for the trial on the day of treatment initiation (Day 14 after tumor implantation). Those animals selected with tumors in the proper size range on Day 14 were placed in several large cages and then assigned randomly to the various treatment groups.
The lower dosage was achieved by further dilution with saline. The dosing solutions were treated as light-sensitive (formulated under amber lights and dispensed into brown bottles), stored at room temperature, and administered within 2 h of formulation. […] The lower dosage was achieved by further dilution with saline. The dosing solutions were treated as light-sensitive (formulated under amber lights and dispensed into brown bottles), were stored at room temperature, and were administered within 2 h of formulation. Topotecan was prepared at a concentration of 1.0 mg/mL on each day of treatment in saline. The lower dosages were achieved by further dilutions with saline. The dosing solutions were treated as light-sensitive (formulated under amber lights and dispensed into brown bottles), were kept on ice, and were administered within 30 min of formulation. Saline was obtained from Phoenix Pharmaceutical, Inc.
The study consisted of a vehicle-treated control group and seven treatment groups with ten mice each for a total of 80 mice at the start of treatment. […] The control group was treated intravenously with saline on the same treatment schedule. All treatments were administered by exact body weight with the injection volume being 0.2 mL/10 g of body weight.
Tumors were measured (the limit of detection being 32 mg (4×4 mm)) and the animals were weighed twice weekly starting with the first day of treatment. Tumor volume was determined by caliper measurements (mm) and using the formula for an ellipsoid sphere: L×W^2/2=mm^3, where L and W refer to the larger and smaller perpendicular dimensions collected at each measurement. This formula is also used to calculate tumor weight, assuming unit density (1 mm^3=1 mg). Individual tumor and body weight measurements were collected.
Number of non-specific deaths, number of complete tumor regressions, number of tumor-free survivors on Day 99, and median number of days for the tumors in each group to reach 1,000 mg were calculated. The median time (in days) to reach 1,000 mg was used in the calculation of the overall delay in the growth of the median tumor (T-C; T=treated group; C=control group). Individual tumor weights, group median tumor weights, TIC (%) based on median tumor weights, group mean tumor weights, standard error of the mean tumor weights, the time for the individual animal's tumor to reach 1,000 mg, individual body weights, mean body weights, and the change in mean body weights relative to the mean body weight on the first day of collection (in grams and as a percent) were collected.

[4] = test system: human NCI-H460 lung tumor; experiment: H460 tumor growth after a single IV administration; type: in vivo; conditions: single iv injection at each compound's MTD; FIG. 7
Experimental: Six-weeks-old female athymic nude mice were purchased from Charles River (Wilmington, Mass.) and acclimated in the laboratories prior to experimentation. […] The animals were observed daily and clinical signs were noted.
Thirty-to-forty mg fragments of human NCI-H460 lung tumor were implanted sc in mice near the right axillary area using a 12-gauge trocar needle and allowed to grow. The day of tumor implantation was designated as day −7. Tumors were allowed to reach 100-234 mg in weight (100-234 mm^3 in size) before the start of treatment. A sufficient number of mice were implanted so that tumors in a weight range as narrow as possible were selected for the trial on the day of treatment initiation (day 7 after tumor implantation). […]
The experiment consisted of 3 treatment groups of 36 mice per group plus an untreated group of 3 mice for a total of 39 mice on the day of treatment. […] The above ‘topotecan-equivalent’ concentrations were calculated based on the topotecan content for each compound. […]
The sc tumors were measured and the animals were weighed twice weekly starting with the first day of treatment. Tumor volume was determined by caliper measurements (mm) and using the formula for an ellipsoid sphere: L×W^2/2=mm^3, where L and W refer to the larger and smaller perpendicular dimensions collected at each measurement. […]

[5] = test system: human NCI-H460 lung tumor; experiment: NCI-H460 lung tumor xenograft efficacy study; type: in vivo
From the text: The purpose of the study was to evaluate the antitumor efficacy of exemplary PEG topotecan conjugates along with unmodified topotecan when administered against subcutaneously (sc) implanted human NCI-H460 lung tumor xenografts in male athymic nude mice.
Six-weeks-old male athymic nude mice were purchased from Charles River (Wilmington, Mass.) and acclimated in the laboratories prior to experimentation. […] Cages were changed twice weekly.
Thirty-to-forty mg fragments of human NCI-H460 lung tumor were implanted sc in mice near the right axillary area using a 12-gauge trocar needle and allowed to grow.
On each day of injection, a 15.625 mg/mL solution of PEG-topotecan (the amount of PEG-topotecan being 31.25 times the topotecan dosage) was prepared in saline. A portion of this solution was diluted with saline to the lower concentrations. All three solutions were quite viscous. A 0.5 mg/mL solution of topotecan was prepared in saline on each day of treatment. Lower dosages were achieved by diluting this solution with saline. All dosing solutions were administered by exact body weight using an injection volume of 0.2 mL/10 g of body weight. Both PEG-topotecan and topotecan solutions were prepared in subdued light with PEG-topotecan injected within two hours of preparation and topotecan injected within 30 minutes of preparation.
The experiment consisted of six treatment groups of ten mice per group and one vehicle-treated control group also with ten mice for a total of 70 mice on the first day of treatment. Both PEG-topotecan and topotecan were administered intravenously (iv) as three injections given four days apart (q4d×3) at dosages of 10, 2.5, and 1 mg/kg/dose. The control group (group 1) was treated with the vehicle (saline), which was also administered iv q4d×3.
The study was terminated 55 days after tumor implantation. Any animal whose tumor became ulcerated or reached 4,000 mg was euthanized prior to study termination.

camptothecin sodium
biological half life t1/2 ([1]; bolus iv): 15.3 hours

CC[C@@]1(O)C(=O)OCc2c1cc1n(c2=O)Cc2cc3c(CN(C)C)c(O)ccc3nc2-1 [topotecan, (S)-10-[(dimethylamino)methyl]-4-ethyl-4,9-dihydroxy-1H-pyrano[3′,4′:6,7]indolizino[1,2-b]quinoline-3,14(4H,12H)-dione]
detectability of topotecan in plasma [2]: undetectable beyond 24 hr post-injection
MTD (Single-dose MTD study): 20 mg/kg
biological half life t1/2 ([1]; 30 min iv): 2.8 hours
concentration at 5 day (in vivo): < 1000 ng/g
maximum average body weight loss ([3]; iv Q4D×3, 5 mg/kg/inj): 0%
maximum average body weight loss ([3]; iv Q4D×3, 10 mg/kg/inj): 0%
maximum tolerated dosage (MTD) ([3]; iv Q4D×3, not more than 10% deaths, no more than 20% average body weight loss): 15 mg/kg/inj
deaths ([3]; non-tumor-bearing mice, iv Q4D×3, dosages of 15, 10, and 5 mg/kg/inj): no deaths; also recorded: without deaths
Median Days to 1000 mg (HT29 human colon tumor; 7.5 mg/kg/inj iv Q4Dx3(14)): 38.5 days
Non-Specific Deaths (HT29 human colon tumor; 7.5 mg/kg/inj iv Q4Dx3(14)): 0
Regressions (100%) (HT29 human colon tumor; 7.5 mg/kg/inj iv Q4Dx3(14)): 0
Tumor Free on Day 99 (HT29 human colon tumor; 7.5 mg/kg/inj iv Q4Dx3(14)): 0
Growth Delay (T-C) (HT29 human colon tumor; 7.5 mg/kg/inj iv Q4Dx3(14)): 4.4 days
Median Days to 1000 mg (HT29 human colon tumor; 15 mg/kg/inj iv Q4Dx3(14)): 46.8 days
Non-Specific Deaths (HT29 human colon tumor; 15 mg/kg/inj iv Q4Dx3(14)): two
Regressions (100%) (HT29 human colon tumor; 15 mg/kg/inj iv Q4Dx3(14)): 0
Tumor Free on Day 99 (HT29 human colon tumor; 15 mg/kg/inj iv Q4Dx3(14)): 0
Non-Specific Deaths (HT29 human colon tumor; 15 mg/kg/inj iv Q4Dx3(14), listed as Top): 2
Growth Delay (T-C) (HT29 human colon tumor; 15 mg/kg/inj iv Q4Dx3(14)): 12.7 days
Median Days to 1000 mg (HT29 human colon tumor; 20 mg/kg/inj iv Q4Dx3(14)): 49.9 days
Non-Specific Deaths (HT29 human colon tumor; 20 mg/kg/inj iv Q4Dx3(14)): two
Regressions (100%) (HT29 human colon tumor; 20 mg/kg/inj iv Q4Dx3(14)): 0
Tumor Free on Day 99 (HT29 human colon tumor; 20 mg/kg/inj iv Q4Dx3(14)): 0
Non-Specific Deaths (HT29 human colon tumor; 20 mg/kg/inj iv Q4Dx3(14), listed as Top): 2
Growth Delay (T-C) (HT29 human colon tumor; 20 mg/kg/inj iv Q4Dx3(14)): 15.8 days
inhibition of growth of HT29 human colon tumor xenografts (HT29 human colon tumor; dosage of 7.5 mg/kg/inj iv Q4D×3): minimally effective
inhibition of growth of HT29 human colon tumor xenografts (HT29 human colon tumor; dosages of 20 and 15 mg/kg/inj iv Q4D×3): effective
tumor growth inhibition / delay [4]: only minimal tumor growth delay; also recorded: delayed modestly
growth delay compared with PEG-topotecan at the same dosage ([5]; 1.0 mg/kg/dose): significantly greater
deaths ([5]; 1.0 mg/kg/dose iv q4d×3): without deaths
deaths ([5]; 2.5 mg/kg/dose iv q4d×3): without deaths
deaths ([5]; 10 mg/kg/dose iv q4d×3): one
